Laboratory results published in publication PMC12477080, “Polychlorinated biphenyls (PCBs) interact with drug metabolism in vivo” (Archives of Toxicology, 2025).

Legend:
Human CYP1A2 = biological target: T1, Human CYP1A2 (Homo sapiens, UniProt P05177); assay: In vitro metabolism by CYP1A2 Supersomes; type: in vitro ADME
T1 construct: purchased; host or cells: insect cells
T1 sequence (P05177 2-516 limits assumed): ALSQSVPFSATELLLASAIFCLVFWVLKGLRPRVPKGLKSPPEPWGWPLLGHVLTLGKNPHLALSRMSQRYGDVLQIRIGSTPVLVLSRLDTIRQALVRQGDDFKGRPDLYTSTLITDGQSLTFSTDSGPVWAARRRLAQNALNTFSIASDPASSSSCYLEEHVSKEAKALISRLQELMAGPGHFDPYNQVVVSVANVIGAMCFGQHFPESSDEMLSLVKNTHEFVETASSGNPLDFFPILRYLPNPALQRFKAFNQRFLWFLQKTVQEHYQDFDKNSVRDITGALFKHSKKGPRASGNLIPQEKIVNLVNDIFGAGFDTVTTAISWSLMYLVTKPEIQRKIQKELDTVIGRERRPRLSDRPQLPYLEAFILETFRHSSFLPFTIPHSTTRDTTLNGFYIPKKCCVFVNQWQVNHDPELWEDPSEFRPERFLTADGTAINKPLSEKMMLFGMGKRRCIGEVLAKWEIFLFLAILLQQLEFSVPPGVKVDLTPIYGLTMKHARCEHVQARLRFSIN
Experimental: To investigate the metabolism of PCB118 by CYP1A2, incubation assays were conducted using CYP1A2 supersomes in a total reaction volume of 100 µL. Reaction mixtures were assembled on ice. […] Reactions were initiated by the addition of CYP1A2 supersomes.
To assess potential non-enzymatic transformations and confirm NADPH-dependent metabolism, control incubations were performed under the following conditions: buffer and enzyme only (no-substrate control), substrate, buffer, and NADPH without enzyme (no-enzyme control), and substrate, buffer, and enzyme without NADPH (no-NADPH control). Each experimental condition was conducted in triplicate, while control conditions were performed as single replicates.
The resulting supernatants (100 µL) were transferred to LC–MS vials, yielding samples with 80% methanol content for analysis. For the detection of hydroxylated PCB metabolites, reactions were stopped by adding 500 µL methanol, followed by the addition of 50 µL of an internal standard mix (10 ng/mL). Samples were vortexed for 1 min and centrifuged at 4,500 rpm for 10 min. The resulting supernatants were transferred to glass LC vials and evaporated under a nitrogen stream at 45 °C until approximately 50 µL remained. Samples were then reconstituted in 100 µL of 0.1 M ammonium acetate buffer (pH 5.3) before transfer to inserts for LC–MS analysis.
To determine whether PCB118 serves as a substrate for CYP1A2 and could act as a competitive inhibitor for other CYP1A2 substrates, we conducted in vitro metabolism experiments. […] In parallel, CYP1A2-mediated metabolism of PCB118 was assessed. […] The identity of 4-OH-CB107 was verified by comparison with an authentic reference standard, showing identical retention time and spectral characteristics (supplemental Fig. 1).

CYP1A2 = assay: CYP phenotyping cocktail clinical study: caffeine/paraxanthine metabolic ratio and its association with PCB plasma levels; details: linear regression of MR AUC0–8 h paraxanthine/caffeine (CYP1A2 activity) on PCB plasma concentration
Experimental: (§1) The participants were ascertained not to have any acute disease by medical history, physical examination, laboratory screening, including hematological and biochemical blood tests, and a 12-lead electrocardiogram. […] The demographic data of the subjects are summarized in Table 1 in the supplemental data. At the enrollment visit, 2 blood samples (9 ml each) were collected into ethylenediaminetetraacetic acid (EDTA)-containing tubes taken from each subject for analyzing the plasma concentrations of PCB congeners and for pharmacogenetic analysis.
(§2) Participants stayed fasted from the evening before until 3 h after drug administration. After that, a meal was provided. Water and juice were permitted but alcoholic and caffeinated beverages were not allowed from the evening before drug administration until the last blood sample was taken on the next day. Venous blood samples (9 ml each) were collected through an intravenous catheter immediately before and 0.25, 0.5, 0.75, 1, 1.5, 2, 2.5, 3, 4, 5, 6, 7, 8, and 24 h after drug administration. Blood was drawn into EDTA-coated tubes, centrifuged at 1500 g for 10 min at 4 °C, and plasma samples were subsequently stored at − 80 °C until further analysis. After completely voiding the bladder immediately before drug administration, the participants collected urine from 0 to 24 h after drug administration. After weighing the collected urine, a 10 ml aliquot of each fraction was taken.
(§3) Commercially sourced standards and internal standards were used for quantification (see Supplemental Materials). In brief, 20 µl of the plasma samples were protein-precipitated with 80 µl methanol containing all internal standards or were treated for 16 h at 37 °C with 2 µl β-glucuronidase (1,000,000 Units) for deconjugation before protein precipitation with 78 µl methanol containing internal standards. Samples were centrifuged for 20 min, at 4 °C and 17,000 × g, and 40 µl of the supernatants were diluted with 40 µl LC–MS grade water, centrifuged again for 5 min at 4 °C and 17,000 × g and 50 µl supernatant were transferred to LC–MS vials 5 µl of the samples were injected into the LC–MS system.
An Agilent 1290 Infinity II UHPLC coupled with a SCIEX QTRAP6500 + triple quadrupole mass spectrometer was used. […]
Partial areas under the plasma concentration–time curves from 0 to 3 h (AUC0–3 h), from 0 to 4 h (AUC0–4 h), and from 0 to 8 h (AUC0–8 h) were calculated based on measured concentrations by the linear trapezoidal rule without extrapolation. […] Metabolic ratios (MR) were calculated by dividing the partial AUC of the metabolite by the respective partial AUC of the parent drug. […]

CYP2C9 = assay: CYP phenotyping cocktail clinical study: torsemide/OH-torsemide metabolic ratio and its association with PCB plasma levels; details: linear regression of MR AUC0–8 h OH-torsemide/torsemide (CYP2C9 activity) on PCB plasma concentration
Experimental: as §1, §2, §3
(§4) An Agilent 1290 Infinity II UHPLC coupled with a SCIEX QTRAP6500 + triple quadrupole mass spectrometer was used. Chromatographic separation was achieved on an Agilent Poroshell 120 EC-C18 (1.9 µm, 2.1 × 50 mm) column with A: 0.1% formic acid in water and B: methanol with a flow rate of 0.7 ml/min and a total run time of 8.5 min. Analytes were eluted using a gradient program. The following gradient steps represent gradual changes in % B over time: 5% B from 0 to 0.2 min, 30% B at 2 min, 34% B at 4.8 min, 95% B at 6.5 min, 95% B at 7.5 min and re-equilibrating to 5% B at 7.7 min and 5%B till 8.5 min. A representative chromatogram is shown in supplemental Fig. 2. The scheduled MRM mode was applied for analyte detection in both positive and negative ESI modes (Supplementary Table 4). Calibration curves were constructed with linear regression using weighted (1/x^2) models (detailed information in supplemental methods).
(§5) Partial areas under the plasma concentration–time curves from 0 to 3 h (AUC0–3 h), from 0 to 4 h (AUC0–4 h), and from 0 to 8 h (AUC0–8 h) were calculated based on measured concentrations by the linear trapezoidal rule without extrapolation. […] Metabolic ratios (MR) were calculated by dividing the partial AUC of the metabolite by the respective partial AUC of the parent drug. The MRs were used as biomarkers for the individual CYP activities of the study subjects.

CYP2D6 = assay: CYP phenotyping cocktail clinical study: metoprolol/α-OH-metoprolol metabolic ratio and its association with PCB plasma levels; details: linear regression of MR AUC0–8 h α-OH-metoprolol/metoprolol (CYP2D6 activity) on PCB plasma concentration
Experimental: as §1, §2, §3, §4, §5

[1] = Determination of PCB concentrations in plasma of HELPcB and control participants; type: in vivo; details: human plasma; for PCB plasma concentration, Geometric mean, HELPcB: HELPcB group; for PCB plasma concentration, Geometric mean, HELPcB / PCB plasma concentration, Geometric mean, Control: N 10; for PCB plasma concentration, Geometric mean, Control: control group
Experimental: The laboratory regularly participates in round robins for the determination of PCBs in plasma (www.g-equas.de).
Plasma concentrations of PCB congeners were quantified in blood samples from all participants using gas chromatography/mass spectrometry (GC–MS) (Fig. 2A and Supplementary Table 2). A total of 19 PCB congeners were measured in control (n = 10) and HELPcB (n = 10) participants, with PCBs detected in all individuals. […] In the control group, PCB plasma concentrations primarily reflected background environmental exposure, such as dietary intake, representing the general population’s burden.

Structure (SMILES)	PCB plasma concentration, Geometric mean, HELPcB [1]	PCB plasma concentration, Geometric mean, Control [1]	also measured
Oc1c(Cl)cc(-c2ccc(Cl)c(Cl)c2)c(Cl)c1Cl [4-OH-CB107]			NADPH dependency of metabolite formation from PCB118 (Human CYP1A2; control incubations lacking NADPH, substrate, or enzyme): strictly NADPH-dependent
Clc1cc(Cl)c(-c2ccc(Cl)c(Cl)c2Cl)cc1Cl [PCB138]	0.672 ng/mL	0.173 ng/mL	t value (CYP1A2): 0,221; β (standardized regression coefficient) (CYP1A2): 0,052; t value (CYP2C9): 0,341; β (standardized regression coefficient) (CYP2C9): 0,080; t value (CYP2C9; PM excl): 0,219; β (standardized regression coefficient) (CYP2C9; PM excl): 0,053; t value (CYP2D6): 0,157; β (standardized regression coefficient) (CYP2D6): 0,037; PCB plasma concentration, Mean [±SD] HELPcB ([1]; HELPcB (occupationally exposed) group): 0.795 ± 0.593 ng/mL; PCB plasma concentration, Mean [±SD] all ([1]; all participants): 0.493 ± 0.516 ng/mL; PCB plasma concentration, Mean [±SD] control ([1]; control group (background exposure)): 0.191 ± 0.090 ng/mL
Clc1ccc(-c2cc(Cl)c(Cl)c(Cl)c2Cl)cc1 [PCB 114]	0.008 ng/mL	BLQ	
Clc1ccc(-c2cc(Cl)c(Cl)c(Cl)c2)c(Cl)c1 [PCB 123]	BLQ	BLQ	
Clc1ccc(-c2cc(Cl)c(Cl)c(Cl)c2)cc1Cl [PCB 126]	BLQ	BLQ	
Clc1cc(Cl)c(-c2cc(Cl)c(Cl)cc2Cl)cc1Cl [PCB 153]	0.919 ng/mL	0.297 ng/mL	
Clc1ccc(-c2cc(Cl)c(Cl)c(Cl)c2Cl)cc1Cl [PCB 156]	0.097 ng/mL	0.036 ng/mL	
Clc1cc(-c2ccc(Cl)c(Cl)c2Cl)cc(Cl)c1Cl [PCB 157]	0.016 ng/mL	0.005 ng/mL	
Clc1cc(Cl)c(-c2cc(Cl)c(Cl)c(Cl)c2)cc1Cl [PCB 167]	0.027 ng/mL	0.008 ng/mL	
Clc1cc(-c2cc(Cl)c(Cl)c(Cl)c2)cc(Cl)c1Cl [PCB 169]	BLQ	BLQ	
Clc1cc(Cl)c(-c2cc(Cl)c(Cl)c(Cl)c2Cl)cc1Cl [PCB 180]	0.808 ng/mL	0.372 ng/mL	
Clc1cc(-c2cc(Cl)c(Cl)c(Cl)c2Cl)cc(Cl)c1Cl [PCB 189]	0.014 ng/mL	0.007 ng/mL	
CCOc1ccc(NC(C)=O)cc1 [phenacetin, reference compound]			CYP1A2-mediated metabolism of the substrate (Human CYP1A2; 10 µM substrate, 50 pmol/mL CYP1A2 supersomes, 2 mM NADPH, 1 h (phenacetin), 1 and 4 h (PCB118)): efficiently catalyzed the O-de-ethylation of phenacetin to paracetamol
